# Measurements published in US9593149B2, “Amylin and calcitonin receptor agonist” (Novo Nordisk A/S, priority 2014, dated 2017).
# Numbered stars: 1 amine (or outer) side, 2 acyl side, 3 side chain; on linkers, the order of the positions; unused ones are H or OH. Peptide text beside a SMILES is read from it. * marks the point of attachment. C20 diacid = O=C(O)CCCCCCCCCCCCCCCCCCC(=O)*; C18 diacid = O=C(O)CCCCCCCCCCCCCCCCC(=O)*; γGlu = O=C(O)[C@H](CCC(=O)[*:2])N[*:1]; AEEA = NCCOCCOCC(=O)O
# Assay: Assay (IV) determination of solubility
# Format: physicochemical
# Experimental: Assay (IV)—Determination of Solubility
# The mimylin peptide was dissolved in water at ˜500 nmol/ml and mixed 1:1 with a series of buffers (100 mM glycylglycine pH 3.0, 100 mM glycylglycine pH 4.0, 100 mM glycylglycine pH 5.0, 100 mM bistrispropane pH 6.0, 100 mM bistrispropane pH 6.5, 100 mM bistrispropane pH 7.0, 100 mM bistrispropane pH 7.5, 100 mM bistrispropane pH 8.0).
Solubility (pH 3.0),Solubility (pH 4.0),Solubility (pH 5.0),Solubility (pH 6.0),Solubility (pH 6.5),Solubility (pH 7.0),Solubility (pH 7.5),Solubility (pH 8.0),solubility at 18 h (pH 4.0) [µM],solubility at 18 h (pH 5.0) [µM],Compound
≧200 μM,≧200 μM,≧200 μM,≧200 μM,≧200 μM,≧200 μM,≧200 μM,≧200 μM,,,"CC(C)C[C@H](NC(=O)[C@H](CCC(=O)O)NC(=O)[C@H](Cc1cnc[nH]1)NC(=O)[C@H](CC(C)C)NC(=O)[C@H](CCC(=O)O)NC(=O)[C@H](C)NC(=O)[C@H](CO)NC(=O)[C@H](CC(C)C)NC(=O)[C@H](CCCNC(=N)N)NC(=O)CNC(=O)[C@H](CC(C)C)NC(=O)[C@@H](NC(=O)[C@H](C)NC(=O)[C@@H](NC(=O)[C@H](CO)NC(=O)[C@H](CC(C)C)NC(=O)[C@H](CCC(=O)O)NC(=O)[C@H](CO)NC(=O)[C@H](C)NC(=O)CC[C@H](NC(=O)CCCCCCCCCCCCCCCCC(=O)O)C(=O)O)[C@@H](C)O)C(C)C)C(=O)N[C@@H](C)C(=O)N[C@H](C(=O)N[C@@H](CC(C)C)C(=O)N1CCC[C@H]1C(=O)N[C@@H](CCCNC(=N)N)C(=O)N[C@H](C(=O)N[C@@H](CCC(=O)O)C(=O)N[C@H](C(=O)NCC(=O)N[C@@H](CO)C(=O)NCC(=O)N[C@@H](CO)C(=O)N1CCC[C@H]1C(N)=O)[C@@H](C)O)[C@@H](C)O)[C@@H](C)O [compound 76, [N-terminal(C18 diacid-gGlu), des1, 9V, 30S, 31G]mimylin] ({C18 diacid-γGlu}-ASELSTAVLGRLSAELHELATLPRTETGSGSP-NH2)"
≧200 μM,≧200 μM,≧200 μM,≧200 μM,≧200 μM,≧200 μM,≧200 μM,≧200 μM,,,"CC(C)C[C@H](NC(=O)[C@H](C)NC(=O)[C@H](C)NC(=O)[C@@H](NC(=O)[C@H](CO)NC(=O)[C@H](CC(C)C)NC(=O)[C@H](CCC(=O)O)NC(=O)[C@H](CO)NC(=O)[C@H](C)NC(=O)COCCOCCNC(=O)COCCOCCNC(=O)CC[C@H](NC(=O)CCCCCCCCCCCCCCCCCCC(=O)O)C(=O)O)[C@@H](C)O)C(=O)NCC(=O)N[C@@H](CCCNC(=N)N)C(=O)N[C@@H](CC(C)C)C(=O)N[C@@H](CO)C(=O)N[C@@H](C)C(=O)N[C@@H](CCC(=O)O)C(=O)N[C@@H](CC(C)C)C(=O)N[C@@H](Cc1cnc[nH]1)C(=O)N[C@@H](CCC(=O)O)C(=O)N[C@@H](CC(C)C)C(=O)N[C@@H](C)C(=O)N[C@H](C(=O)N[C@@H](CC(C)C)C(=O)N1CCC[C@H]1C(=O)N[C@@H](CCCNC(=N)N)C(=O)N[C@H](C(=O)N[C@@H](CCC(=O)O)C(=O)N[C@H](C(=O)NCC(=O)N[C@@H](CO)C(=O)NCC(=O)N[C@@H](CO)C(=O)N1CCC[C@H]1C(N)=O)[C@@H](C)O)[C@@H](C)O)[C@@H](C)O [compound 42, [N-terminal(C20 diacid-gGlu-2xOEG), des1, 30S, 31G]mimylin] ({C20 diacid-γGlu-AEEA-AEEA}-ASELSTAALGRLSAELHELATLPRTETGSGSP-NH2)"
≧200 μM,,,≧200 μM,≧200 μM,≧200 μM,≧200 μM,≧200 μM,177,45,"CC(C)C[C@H](NC(=O)[C@H](CCC(=O)O)NC(=O)[C@H](Cc1cnc[nH]1)NC(=O)[C@H](CC(C)C)NC(=O)[C@H](CCC(=O)O)NC(=O)[C@H](C)NC(=O)[C@H](CO)NC(=O)[C@H](CC(C)C)NC(=O)[C@H](CCCNC(=N)N)NC(=O)CNC(=O)[C@@H](NC(=O)[C@@H](NC(=O)[C@H](C)NC(=O)[C@@H](NC(=O)[C@H](CO)NC(=O)[C@@H](NC(=O)[C@H](CCC(=O)O)NC(=O)[C@H](CO)NC(=O)[C@H](C)NC(=O)CC[C@H](NC(=O)CCCCCCCCCCCCCCCCC(=O)O)C(=O)O)C(C)C)[C@@H](C)O)C(C)C)C(C)C)C(=O)N[C@@H](C)C(=O)N[C@H](C(=O)N[C@@H](CC(C)C)C(=O)N1CCC[C@H]1C(=O)N[C@@H](CCCNC(=N)N)C(=O)N[C@H](C(=O)N[C@@H](CCC(=O)O)C(=O)N[C@H](C(=O)NCC(=O)N[C@@H](CO)C(=O)NCC(=O)N[C@@H](CO)C(=O)N1CCC[C@H]1C(N)=O)[C@@H](C)O)[C@@H](C)O)[C@@H](C)O [compound 96, [N-terminal(C18 diacid-gGlu), des1, 5V, 9V, 10V, 30S, 31G]mimylin] ({C18 diacid-γGlu}-ASEVSTAVVGRLSAELHELATLPRTETGSGSP-NH2)"
≧200 μM,≧200 μM,≧200 μM,≧200 μM,≧200 μM,≧200 μM,≧200 μM,≧200 μM,,,"CC(C)C[C@H](NC(=O)[C@H](CCCNC(=N)N)NC(=O)CNC(=O)[C@H](CC(C)C)NC(=O)[C@@H](NC(=O)[C@H](C)NC(=O)[C@@H](NC(=O)[C@@H](NC(=O)[C@H](CC(C)C)NC(=O)[C@H](CCC(=O)O)NC(=O)[C@H](CO)NC(=O)[C@H](C)NC(=O)CC[C@H](NC(=O)CCCCCCCCCCCCCCCCC(=O)O)C(=O)O)[C@@H](C)O)[C@@H](C)O)C(C)C)C(=O)N[C@@H](CCC(=O)O)C(=O)N[C@@H](C)C(=O)N[C@@H](CCC(=O)O)C(=O)N[C@@H](CC(C)C)C(=O)N[C@@H](Cc1cnc[nH]1)C(=O)N[C@@H](CCC(=O)O)C(=O)N[C@@H](CC(C)C)C(=O)N[C@H](C(=O)N[C@H](C(=O)N[C@@H](CC(C)C)C(=O)N1CCC[C@H]1C(=O)N[C@@H](CCCNC(=N)N)C(=O)N[C@H](C(=O)N[C@@H](CCC(=O)O)C(=O)N[C@H](C(=O)NCC(=O)N[C@H](C(=O)NCC(=O)N[C@H](C(=O)N1CCC[C@H]1C(N)=O)[C@@H](C)O)[C@@H](C)O)[C@@H](C)O)[C@@H](C)O)[C@@H](C)O)[C@@H](C)O [compound 106, [N-terminal(C18 diacid-gGlu), des1, 6T, 9V, 14E, 21T, 30T, 31G, 32T]mimylin] ({C18 diacid-γGlu}-ASELTTAVLGRLEAELHELTTLPRTETGTGTP-NH2)"
≧200 μM,≧200 μM,,≧200 μM,≧200 μM,≧200 μM,≧200 μM,≧200 μM,,40,"CC(C)C[C@H](NC(=O)[C@H](C)NC(=O)[C@H](C)NC(=O)[C@@H](NC(=O)[C@H](CO)NC(=O)[C@H](CC(C)C)NC(=O)[C@H](CCC(=O)O)NC(=O)[C@H](CO)NC(=O)[C@H](C)NC(=O)CC[C@H](NC(=O)CCCCCCCCCCCCCCCCCCC(=O)O)C(=O)O)[C@@H](C)O)C(=O)NCC(=O)N[C@@H](CCCNC(=N)N)C(=O)N[C@@H](CC(C)C)C(=O)N[C@@H](CO)C(=O)N[C@@H](C)C(=O)N[C@@H](CCC(=O)O)C(=O)N[C@@H](CC(C)C)C(=O)N[C@@H](Cc1cnc[nH]1)C(=O)N[C@@H](CCC(=O)O)C(=O)N[C@@H](CC(C)C)C(=O)N[C@@H](CO)C(=O)N[C@H](C(=O)N[C@@H](Cc1ccc(O)cc1)C(=O)N1CCC[C@H]1C(=O)N[C@@H](CCCNC(=N)N)C(=O)N[C@H](C(=O)N[C@@H](CCC(=O)O)C(=O)N[C@H](C(=O)NCC(=O)N[C@@H](CO)C(=O)NCC(=O)N[C@@H](CO)C(=O)N[C@@H](Cc1ccc(O)cc1)C(N)=O)[C@@H](C)O)[C@@H](C)O)[C@@H](C)O [compound 97, [N-terminal(C20 diacid-gGlu), des1, 21S, 23Y, 30S, 31G, 33Y]mimylin] ({C20 diacid-γGlu}-ASELSTAALGRLSAELHELSTYPRTETGSGSY-NH2)"
≧200 μM,≧200 μM,≧200 μM,≧200 μM,≧200 μM,≧200 μM,≧200 μM,≧200 μM,,,"CC(C)C[C@H](NC(=O)[C@H](C)NC(=O)[C@H](C)NC(=O)[C@@H](NC(=O)[C@H](Cc1cnc[nH]1)NC(=O)[C@H](CC(C)C)NC(=O)[C@H](CCC(=O)O)NC(=O)[C@H](CO)NC(=O)[C@H](C)NC(=O)[C@H](CCC(=O)O)NC(=O)CCCCCCCCCCCCCCCCC(=O)O)[C@@H](C)O)C(=O)NCC(=O)N[C@@H](CCCNC(=N)N)C(=O)N[C@@H](CC(C)C)C(=O)N[C@@H](CO)C(=O)N[C@@H](C)C(=O)N[C@@H](CCC(=O)O)C(=O)N[C@@H](CC(C)C)C(=O)N[C@@H](Cc1cnc[nH]1)C(=O)N[C@@H](CCC(=O)O)C(=O)N[C@@H](CC(C)C)C(=O)N[C@@H](C)C(=O)N[C@H](C(=O)N[C@@H](CC(C)C)C(=O)N1CCC[C@H]1C(=O)N[C@@H](CCCNC(=N)N)C(=O)N[C@H](C(=O)N[C@@H](CCC(=O)O)C(=O)N[C@H](C(=O)NCC(=O)N1CCC[C@H]1C(=O)N[C@@H](CCC(=O)O)C(=O)N[C@@H](CO)C(=O)N1CCC[C@H]1C(N)=O)[C@@H](C)O)[C@@H](C)O)[C@@H](C)O [compound 16, [N-terminal(C18 diacid), 6H]mimylin] ({C18 diacid}-EASELHTAALGRLSAELHELATLPRTETGPESP-NH2)"
